Test results reported in PMC8304610, “Discovery of Novel 2,4-Dianilinopyrimidine Derivatives Containing 4-(Morpholinomethyl)phenyl and N-Substituted Benzamides as Potential FAK Inhibitors and Anticancer Agents” (Molecules, 2021).

Experiments:
[1] = tested on: normal human bronchial epithelial cells (HBE); assay: CCK-8 cellular selectivity assay, HBE; assay type: cell-based; conditions: for IC50: Homo sapiens, Epithelial cell, HBE normal cells, CCK-8, 72 h, mean ± SD of three experiments, read-out: Antiproliferative Activity IC50, HBE; for SI Values (selectivity index): IC50 for HBE cell line/IC50 for H1975 cell line
Protocol: (§1) The H1975 human NSCLC cell line was obtained from ATCC. A431 human epithelial carcinoma and HBE human bronchial epithelial cell lines were kind gifts from Fuheng Biological Company Ltd. (Shanghai, China) and YuXi Biotech Company (Jiangsu, China), respectively. The cells were maintained in RPMI 1640 or DMEM (Gibco®, Thermo Fisher Scientific Inc., Waltham, MA, USA) containing 10% fetal bovine serum (FBS, Gibco®) and 1% penicillin-streptomycin (Beyotime Company, Shanghai, China) at 37 °C in a 5% CO2 incubator.
(§2) A total of 3000 cells of H1975 or HBE and 5000 cells of A431 were seeded for each well into a 96-well plate and cultured in 10% FBS respective growth medium overnight. Various concentrations (0–20 μM) of each compound were then added in triplicate to the cells. After 72 h of incubation, 10 μL of CCK-8 solution (5.0 mg/mL, Biotool Company, Kirchberg, Switzerland) was added to each well and the cells continued to culture for 4 h. The optical density (OD) was determined at 450 nm with a microplate reader (Thermo Fisher Scientific, Waltham, MA, USA). IC50 values were calculated employing GraphPad Prism version 8.0.

[2] = tested on: H1975 non-small cell lung cancer (NSCLC) cells; assay: CCK-8 cell viability assay, H1975; assay type: cell-based; conditions: Homo sapiens, NCI-H1975, CCK-8, 72 h, mean ± SD of three experiments, read-out: Antiproliferative Activity IC50, H1975
Protocol: as §1, §2

[3] = tested on: A431 human epithelial carcinoma cells; assay: CCK-8 cell viability assay, A431; assay type: cell-based; conditions: A-431, CCK-8, 72 h, mean ± SD of three experiments, read-out: Antiproliferative Activity IC50, A431
Protocol: as §1, §2

FAK kinase = target: T1, FAK kinase (Homo sapiens, UniProt Q05397); assay: ADP-Glo kinase enzymatic assay; assay type: biochemical; conditions: mean ± SD of three independent experiments
T1 construct: purchased Promega Corporation V9301
Protocol: The ADP-Glo™ Kinase Assay Kit and FAK Kinase Enzyme (Catalog. V9301) were purchased from Promega Corporation (Madison, WI, USA). The experiments were performed according to the detailed and complete protocols of the manufacturer. Briefly, the concentration of FAK determined by optimization experiments was 0.1 μg/μL. Suitable concentration gradients from 1.6 to 1000 nM were set for all the tested compounds. A kinase reaction buffer, a substrate/ATP mixture, and a FAK solution were prepared right before use. The 5 μL kinase reaction consisted of 1 μL of compound solution, 2 μL of substrate/ATP mixture, and 2 μL of FAK solution. The control without enzyme was provided by 3 μL of kinase reaction buffer and 2 μL of substrate/ATP mixture. The negative control was prepared using 1 μL of kinase reaction buffer instead of a compound solution. The kinase reactions were added to a 384-well plate and incubated at room temperature for 60 min, then 5 μL of ADP-Glo™ Reagent was added to stop the kinase reaction and deplete the unconsumed ATP, and incubated at room temperature for 40 min. After adding 10 μL of Kinase Detection Reagent, the plate was incubated at room temperature for 30 min and then luminescence was recorded (integration time 0.5–1 s) on a TriStar® LB942 Multimode Microplate Reader (BERTHOLD TECHNOLOGIES GmbH & Co. KG., Bad Wildbad, Germany). Curve fitting and data presentations were performed using GraphPad Prism version 8.0.

H1975 cells = assay: Scratch (cell migration) assay; assay type: cell-based, human; conditions: H1975, 0.1, 0.5, and 1 μM, 24 h
Protocol: H1975 cells were seeded in 6-well plates and incubated for 12 h. When cells were grown to 90–100% confluency in a monolayer, wounds were generated using a pipette tip. […] The images were captured to record the status of cells near the scratch lines at the beginning and after 12 and 24 h.

T1 sequence (Q05397 393-698 limits assumed): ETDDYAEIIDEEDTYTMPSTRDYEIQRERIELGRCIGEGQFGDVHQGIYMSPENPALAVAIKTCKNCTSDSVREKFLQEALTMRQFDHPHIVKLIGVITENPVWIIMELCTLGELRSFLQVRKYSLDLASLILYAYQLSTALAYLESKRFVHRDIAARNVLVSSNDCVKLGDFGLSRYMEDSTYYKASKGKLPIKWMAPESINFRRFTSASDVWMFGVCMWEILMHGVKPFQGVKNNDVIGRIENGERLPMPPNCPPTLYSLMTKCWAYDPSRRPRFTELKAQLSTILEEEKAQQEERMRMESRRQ

Row | Compound | IC50 [1] | SI Values (selectivity index) [1] | IC50 [2] | IC50 [3] | IC50 (FAK kinase) | melting point | Cell migration (in words) (H1975 cells)
1 | O=C(NCCCO)c1ccccc1Nc1nc(Nc2ccc(CN3CCOCC3)cc2)ncc1Cl [Compound 8b, 2-((5-Chloro-2-((4-(morpholinomethyl)phenyl)amino)pyrimidin-4-yl)amino)-N-(3-hydroxypropyl)benzamide] | 1150 ± 283 nM | 15 | 75 ± 11 nM | 207 ± 36 nM | 61 ± 9 nM |  | 
2 | CC(O)CNC(=O)c1ccccc1Nc1nc(Nc2ccc(CN3CCOCC3)cc2)ncc1Cl (stereo not drawn) [Compound 8c, 2-((5-Chloro-2-((4-(morpholinomethyl)phenyl)amino)pyrimidin-4-yl)amino)-N-(2-hydroxypropyl)benzamide] | 4010 ± 231 nM | 34 | 119 ± 47 nM | 158 ± 27 nM | 30 ± 7 nM |  | 
3 | CN(CCO)C(=O)c1ccccc1Nc1nc(Nc2ccc(CN3CCOCC3)cc2)ncc1Cl [Compound 8d, 2-((5-Chloro-2-((4-(morpholinomethyl)phenyl)amino)pyrimidin-4-yl)amino)-N-(2-hydroxyethyl)-N-methylbenzamide] | 3820 ± 500 nM | 13 | 293 ± 50 nM | 161 ± 82 nM | 40 ± 11 nM |  | 
4 | O=C(c1ccccc1Nc1nc(Nc2ccc(CN3CCOCC3)cc2)ncc1Cl)N1CCC(O)CC1 [Compound 8e] | 435 ± 45 nM | 0.3 | 1410 ± 132 nM | 238 ± 98 nM | 129 ± 37 nM |  | 
5 | O=C(c1ccccc1Nc1nc(Nc2ccc(CN3CCOCC3)cc2)ncc1Cl)N1CCC(CO)CC1 [Compound 8f] | 862 ± 125 nM | 0.4 | 2220 ± 261 nM | 195 ± 97 nM | 173 ± 23 nM |  | 
6 | O=C(NCCCCCCO)c1ccccc1Nc1nc(Nc2ccc(CN3CCOCC3)cc2)ncc1Cl [Compound 8g, 2-((5-Chloro-2-((4-(morpholinomethyl)phenyl)amino)pyrimidin-4-yl)amino)-N-(6-hydroxyhexyl)benzamide] | 1640 ± 813 nM | 6 | 287 ± 61 nM | 507 ± 19 nM | 198 ± 32 nM |  | 
7 | O=C(NCC(O)CO)c1ccccc1Nc1nc(Nc2ccc(CN3CCOCC3)cc2)ncc1Cl (stereo not drawn) [Compound 8h, 2-((5-Chloro-2-((4-(morpholinomethyl)phenyl)amino)pyrimidin-4-yl)amino)-N-(2,3-dihydroxypropyl)benzamide] | 688 ± 121 nM | 3 | 219 ± 82 nM | 47 ± 6 nM | 72 ± 7 nM |  | 
8 | CCC(C)C(CO)NC(=O)c1ccccc1Nc1nc(Nc2ccc(CN3CCOCC3)cc2)ncc1Cl (stereo not drawn) [Compound 8i, 2-((5-Chloro-2-((4-(morpholinomethyl)phenyl)amino)pyrimidin-4-yl)amino)-N-(1-hydroxy-3-methylpentan-2-yl)benzamide] | > 20000 nM | >24 | 815 ± 61 nM | 1240 ± 909 nM | 126 ± 21 nM |  | 
9 | O=C(NCCOc1no[n+]([O-])c1S(=O)(=O)c1ccccc1)c1ccccc1Nc1nc(Nc2ccc(CN3CCOCC3)cc2)ncc1Cl [Compound 9a, 4-(2-(2-((5-Chloro-2-((4-(morpholinomethyl)phenyl)amino)pyrimidin-4-yl)amino)benzamido)ethoxy)-3-(phenylsulfonyl)-1,2,5-oxadiazole 2-oxide] | 916 ± 92 nM | 19 | 47 ± 9 nM | 182 ± 32 nM | 149 ± 33 nM | 174 to 176 °C | 
10 | O=C(NCCCOc1no[n+]([O-])c1S(=O)(=O)c1ccccc1)c1ccccc1Nc1nc(Nc2ccc(CN3CCOCC3)cc2)ncc1Cl [Compound 9b, 4-(3-(2-((5-Chloro-2-((4-(morpholinomethyl)phenyl)amino)pyrimidin-4-yl)amino)benzamido)propoxy)-3-(phenylsulfonyl)-1,2,5-oxadiazole 2-oxide] | 2080 ± 366 nM | 13 | 164 ± 51 nM | 138 ± 31 nM | 338 ± 38 nM | 144 to 146 °C | 
11 | CC(CNC(=O)c1ccccc1Nc1nc(Nc2ccc(CN3CCOCC3)cc2)ncc1Cl)Oc1no[n+]([O-])c1S(=O)(=O)c1ccccc1 (stereo not drawn) [Compound 9c, 4-((1-(2-((5-Chloro-2-((4-(morpholinomethyl)phenyl)amino)pyrimidin-4-yl)amino)benzamido)propan-2-yl)oxy)-3-(phenylsulfonyl)-1,2,5-oxadiazole 2-oxide] | 2420 ± 546 nM | 4 | 567 ± 86 nM | 1070 ± 154 nM | 89 ± 14 nM | 187 to 189 °C | 
12 | CN(CCOc1no[n+]([O-])c1S(=O)(=O)c1ccccc1)C(=O)c1ccccc1Nc1nc(Nc2ccc(CN3CCOCC3)cc2)ncc1Cl [Compound 9d, 4-(2-(2-((5-Chloro-2-((4-(morpholinomethyl)phenyl)amino)pyrimidin-4-yl)amino)-N-methylbenzamido)ethoxy)-3-(phenylsulfonyl)-1,2,5-oxadiazole 2-oxide] | 4550 ± 533 nM | 4 | 1090 ± 137 nM | 2740 ± 206 nM | 66 ± 14 nM | 169 to 171 °C | 
13 | O=C(c1ccccc1Nc1nc(Nc2ccc(CN3CCOCC3)cc2)ncc1Cl)N1CCC(Oc2no[n+]([O-])c2S(=O)(=O)c2ccccc2)CC1 [Compound 9e, 4-((1-(2-((5-Chloro-2-((4-(morpholinomethyl)phenyl)amino)pyrimidin-4-yl)amino)benzoyl)piperidin-4-yl)oxy)-3-(phenylsulfonyl)-1,2,5-oxadiazole 2-oxide] | 763 ± 100 nM | 0.4 | 1720 ± 295 nM | 2410 ± 587 nM | > 1000 nM | 130 to 132 °C | 
14 | O=C(c1ccccc1Nc1nc(Nc2ccc(CN3CCOCC3)cc2)ncc1Cl)N1CCC(COc2no[n+]([O-])c2S(=O)(=O)c2ccccc2)CC1 [Compound 9f, 4-((1-(2-((5-Chloro-2-((4-(morpholinomethyl)phenyl)amino)pyrimidin-4-yl)amino)benzoyl)piperidin-4-yl)methoxy)-3-(phenylsulfonyl)-1,2,5-oxadiazole 2-oxide] | 3760 ± 1600 nM | 2 | 1570 ± 265 nM | 1740 ± 305 nM | 300 ± 9 nM | 109 to 111 °C | 
15 | O=C(NCCCCCCOc1no[n+]([O-])c1S(=O)(=O)c1ccccc1)c1ccccc1Nc1nc(Nc2ccc(CN3CCOCC3)cc2)ncc1Cl [Compound 9g, 4-((6-(2-((5-Chloro-2-((4-(morpholinomethyl)phenyl)amino)pyrimidin-4-yl)amino)benzamido)hexyl)oxy)-3-(phenylsulfonyl)-1,2,5-oxadiazole 2-oxide] | 3010 ± 90 nM | 5 | 592 ± 73 nM | 617 ± 40 nM | > 1000 nM | 120 to 122 °C | 
16 | C=CC(=O)Nc1cc(Nc2nccc(-c3cn(C)c4ccccc34)n2)c(OC)cc1N(C)CCN(C)C [Osimertinib, osimertinib, reference compound] | 1210 ± 177 nM | 10 | 116 ± 32 nM | 988 ± 119 nM |  |  | 
17 | CNC(=O)c1ccccc1Nc1nc(Nc2ccc(N3CCOCC3)cc2OC)ncc1Cl [TAE226, reference compound] | > 20000 nM |  | 141 ± 41 nM | 392 ± 53 nM |  |  | reduced migration distances
